Data reported in the NIST ThermoML archive (doi:10.1021/acs.jced.9b00507).

Assay: xn = mol fraction of the nth substance listed
Details: 100 kPa, Liquid; for viscosity: Concentric cylinders viscometry; for mass density: Vibrating tube method

CCCCCCn1cc[n+](C)c1.O=[N+]([O-])[O-] [1-hexyl-3-methylimidazolium nitrate] + CCCCCCO
Details	mass density [kg/m3]	viscosity [mPa·s]
293.15 K, x1 = 0.0816	859	12.97
293.15 K, x1 = 0.1604	894.1	24.15
293.15 K, x1 = 0.2391	925.7	39.81
293.15 K, x1 = 0.3502	965.4	76.74
293.15 K, x1 = 0.4409	994.2	123.03
293.15 K, x1 = 0.5592	1027.7	207.01
293.15 K, x1 = 0.6508	1050.9	296.48
293.15 K, x1 = 0.7395	1071.2	414.95
293.15 K, x1 = 0.8502	1093.7	581.11
293.15 K, x1 = 0.9391	1110	707.52
293.15 K, x1 = 1	1120.3	804.17
298.15 K, x1 = 0.0816	855.2	8.79
298.15 K, x1 = 0.1604	890.1	14.35
298.15 K, x1 = 0.2391	921.7	22.49
298.15 K, x1 = 0.3502	961.4	39.81
298.15 K, x1 = 0.4409	990.2	63.83
298.15 K, x1 = 0.5592	1023.9	109.9
298.15 K, x1 = 0.6508	1047.2	167.11
298.15 K, x1 = 0.7395	1067.7	243.78
298.15 K, x1 = 0.8502	1090.5	367.28
298.15 K, x1 = 0.9391	1107.1	473.22
298.15 K, x1 = 1	1117.5	545.25
303.15 K, x1 = 0.0816	851.5	6.53
303.15 K, x1 = 0.1604	886.2	10
303.15 K, x1 = 0.2391	917.6	15.42
303.15 K, x1 = 0.3502	957.2	26
303.15 K, x1 = 0.4409	986.1	39.54
303.15 K, x1 = 0.5592	1019.9	66.53
303.15 K, x1 = 0.6508	1043.3	101.16
303.15 K, x1 = 0.7395	1063.9	149.28
303.15 K, x1 = 0.8502	1087	233.88
303.15 K, x1 = 0.9391	1103.7	315.5
303.15 K, x1 = 1	1114.3	369.14
308.15 K, x1 = 0.0816	847.7	5.01
308.15 K, x1 = 0.1604	882.4	6.95
308.15 K, x1 = 0.2391	913.8	9.64
308.15 K, x1 = 0.3502	953.4	15.85
308.15 K, x1 = 0.4409	982.3	23.71
308.15 K, x1 = 0.5592	1016.1	40.36
308.15 K, x1 = 0.6508	1039.6	63.1
308.15 K, x1 = 0.7395	1060.2	95.67
308.15 K, x1 = 0.8502	1083.5	157.61
308.15 K, x1 = 0.9391	1100.4	216.41
308.15 K, x1 = 1	1111.1	257.59
313.15 K, x1 = 0.0816	843.9	3.92
313.15 K, x1 = 0.1604	878.5	5.11
313.15 K, x1 = 0.2391	909.9	6.87
313.15 K, x1 = 0.3502	949.6	10.64
313.15 K, x1 = 0.4409	978.5	15.42
313.15 K, x1 = 0.5592	1012.3	25.7
313.15 K, x1 = 0.6508	1035.8	40.74
313.15 K, x1 = 0.7395	1056.5	63.17
313.15 K, x1 = 0.8502	1079.9	107.2
313.15 K, x1 = 0.9391	1096.9	151.34
313.15 K, x1 = 1	1107.8	185.67
318.15 K, x1 = 0.0816	840.1	3.2
318.15 K, x1 = 0.1604	874.7	3.92
318.15 K, x1 = 0.2391	906.1	5.06
318.15 K, x1 = 0.3502	945.8	7.53
318.15 K, x1 = 0.4409	974.8	10.79
318.15 K, x1 = 0.5592	1008.7	18.71
318.15 K, x1 = 0.6508	1032.2	29.04
318.15 K, x1 = 0.7395	1053.1	46.03
318.15 K, x1 = 0.8502	1076.5	78.87
318.15 K, x1 = 0.9391	1093.7	114.4
318.15 K, x1 = 1	1104.7	140.18
323.15 K, x1 = 0.0816	836.2	2.63
323.15 K, x1 = 0.1604	870.7	3.1
323.15 K, x1 = 0.2391	902.2	3.84
323.15 K, x1 = 0.3502	942	5.55
323.15 K, x1 = 0.4409	971	8.02
323.15 K, x1 = 0.5592	1005	13.49
323.15 K, x1 = 0.6508	1028.7	21.63
323.15 K, x1 = 0.7395	1049.5	36.13
323.15 K, x1 = 0.8502	1073.1	63.1
323.15 K, x1 = 0.9391	1090.4	91.12
323.15 K, x1 = 1	1101.6	110.94
